Measurements published in paper PMC8204385 (Biophysical Journal, 2021).
Several values for one entry are separate records, joined by “and”; a condition that tells them apart may be missing. Equal entries are not always repeated.

Molecular target: T1, human SHP-1 (Homo sapiens, UniProt P29350)
T1 construct: 6xHis (N); made in house; host or cells: Escherichia coli BL21-CodonPlus (DE3)-RIPL
Assay: SPR-based assay for tethered SHP-1 reactions on immobilised phosphopeptides, extended MPDPDE model fit
Type: binding

[1] = SPR, 37°C, MPDPDE fit, mean ± SE of N experiments

T1 sequence (P29350 whole entry): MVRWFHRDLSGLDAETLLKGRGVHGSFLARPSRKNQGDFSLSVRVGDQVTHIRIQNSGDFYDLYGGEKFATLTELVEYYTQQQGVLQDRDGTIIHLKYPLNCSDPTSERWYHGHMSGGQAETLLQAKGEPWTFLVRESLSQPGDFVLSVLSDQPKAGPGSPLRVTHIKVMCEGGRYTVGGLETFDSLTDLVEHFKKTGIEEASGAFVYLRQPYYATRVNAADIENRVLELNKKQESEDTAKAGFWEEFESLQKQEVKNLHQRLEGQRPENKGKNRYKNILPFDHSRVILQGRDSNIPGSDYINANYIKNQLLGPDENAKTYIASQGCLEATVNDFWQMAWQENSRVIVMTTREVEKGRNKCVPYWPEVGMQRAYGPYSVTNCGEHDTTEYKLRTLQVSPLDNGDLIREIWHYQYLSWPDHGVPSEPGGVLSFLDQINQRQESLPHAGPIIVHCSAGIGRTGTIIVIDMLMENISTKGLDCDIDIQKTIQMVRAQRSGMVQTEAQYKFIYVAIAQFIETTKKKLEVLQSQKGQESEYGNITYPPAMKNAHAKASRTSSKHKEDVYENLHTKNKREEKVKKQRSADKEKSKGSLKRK

“biotin-QLRRRGKTNHYQTTVEKK SLTIYAQVQKPGPLQKKLD SFPA QDPCTTIYVAATEPVPESVQET NSITVY^∗ASVTLPES [SLAM, N-terminally biotinylated singly phosphorylated peptide of the cytoplasmic tail of SLAM, 77 aa]” was tested, and the “molecular reach contributed by the peptide tail (LPD-1 or LSLAM)” value (37°C, ((L^2 − LSHP-1^2)/2)^1/2 with LSHP-1 = 13.0 nm) was 20.1 nm and 20 nm, the kon (SPR Biacore T200, 37°C, 10 μL/min, SHP-1 injected 45 s over biotinylated phosphopeptide on streptavidin CM5 chip, HEPES pH 7.4, MPDPDE fit, mean ± SE of N experiments) was 20000 ± 10000 M⁻¹ s⁻¹ and the “allosteric activation of SHP-1, ratio kcat(tethered)/kcat(solution)” value (SPR, 37°C) was 6.2 fold. For the same substance, the Kd (SPR, 37°C, KD = koff/kon, mean ± SE of N experiments) was 130 ± 40 µM, the “L, molecular reach of the reaction” value (SPR, 37°C, L = (σ*)^−1/3 from averaged σ*, ± SE) was 31.2 ± 1.2 nm and the “kcat(solution)” value [1] was 5800 ± 1000 M⁻¹ s⁻¹. The “kcat(tethered)” value [1] was 36000 ± 3000 M⁻¹ s⁻¹, the koff [1] was 1.7 ± 0.2 s⁻¹ and the “σ* (local concentration)” value [1] was 55 ± 6 µM.
